Results as given in US4513001A, “β-Adrenergic 1-[1-benzimidazolyl]-N-[2-(4-hydroxy-3-methoxy-phenyl)-2-hydroxy-ethyl]- 3-amino butane and salts and hydrates thereof” (priority 1982, dated 1985).
“Also recorded” adds a separate entry of the source. Where two headings read alike, the source gives them in different places.

Legend:
[1] = tested on: isolated trachea preparation of the guinea pig; test: Relaxant activity on isolated tracheal muscle in vitro
Procedure: This activity was studied on an isolated trachea preparation of the guinea pig (chain of tracheal rings, according to CASTILLO and BEER. Journ. Pharmacol. Exp. Ther. 1947 90 104-109), kept alive in a KREBS solution. The effect of cumulative doses on the pressure of the preparation was recorded.
The activity of the substance was expressed by the value of the molar CD50 (decontracting concentration 50=concentration giving 50% of maximum relaxation), of which the negative log. is the value pD2, and by the intrinsic activity corresponding to maximum effect.
These values were determined in parallel for the compound A and Salbutamol, on 6 preparations for each.

[2] = tested on: histamine bronchospasm; test: Bronchodilator activity in vivo, anesthetized guinea pig, intravenous (inhibition of histamine bronchospasm, KONZETT); conditions: for % inhibition in time: i.v.
Procedure: (§1) 1.2.1 In the anesthesized guinea pig (method of KONZETT. Arch. Exp. Pathol. Pharmakol. 1940 195 71-74)
(§2) A bronchospasm was caused by intravenous histamine injection. The bronchodilator activity was shown by partial or total inhibition of this spasm.
The product studied was administered intravenously or intraduodenaly and histamine injected then at different times to follow the delay in appearance and the duration of the inhibiting effect of the treatment. […]

[3] = tested on: histamine bronchospasm; test: Bronchodilator activity in vivo, anesthetized guinea pig, intraduodenal (inhibition of histamine bronchospasm, KONZETT)
Procedure: as §1, §2
The product studied was administered intravenously or intraduodenaly and histamine injected then at different times to follow the delay in appearance and the duration of the inhibiting effect of the treatment.
The results below are the averages of the values obtained in 10 animals.

[4] = tested on: histamine bronchospasm; test: Bronchodilator activity in vivo, anesthetized dog, intraduodenal (intratracheal pressure, histamine bronchospasm)
Procedure: 1.2.2. In the anesthesized dog (recording of the intratracheal pressure)
A bronchospasm was caused by intravenous injection and histamine. The bronchodilator activity was shown by partial or total inhibition of this spasm.
The products studied were administered intraduodenally and the histamine injected then at various times to follow the effect of the treatment.
The results borne in the table below are the averages of the values obtained in 3 animals for each product.

[5] = tested on: rat uterus preparation; test: Uterus relaxing activity in vitro; conditions: for EC50: Rattus norvegicus, 7 preparations, read-out: CE50 (effective concentration 50, inhibiting by 50% the control contraction)
Description: This activity was investigated on a rat uterus preparation, put into estrus by cutaneous injection of oestradiol benzoate. The uterine horns were kept alive in a RINGER-LOCKE solution, modified by GADDUM and VOGT.
Their activity is expressed by the value of the molar CE50 (effective concentration 50, inhibiting by 50% the control contraction induced by the contracting agent).
Each CE50 indicated below was obtained from the results of 7 preparations.

[6] = tested on: isolated right atrium preparation of the guinea pig; test: Activity on the heart rate in vitro, isolated right atrium; conditions: for Heart rate, maximum: basal 209 (Compound A), 202 (Salbutamol); for Tachycardiac activity in vitro (comparison with Salbutamol): sulphate, dihydrate
Procedure: This action was studied on an isolated right atrium preparation of the guinea pig kept alive in a RINGER solution. The effect of cumulative doses on the heart rate was recorded. The results below are the averages of 6 preparations of the compound A, of 4 for Salbutamol

[7] = tested on: heart rate and mean aortic pressure; test: Heart rate and mean aortic pressure of the anesthetised dog, intraduodenal; assay type: in vivo; conditions: for Heart rate, maximum cumulative effect / Average aortic pressure, maximum cumulative effect: intraduodenal
Procedure: 3.1.1. Activity on the heart rate and on the mean aortic pressure of the anesthetisied dog
The activity of the compound A and of Salbutamol was studied on 2 batches of 3 dogs per product: one in spontaneous respiration, the other in artificial respiration; the two substances were administered intraduodenally at 3 doses: 0.008-0.025 and 0.08 mg/kg.

[8] = tested on: guinea pig trachea; test: β-stimulant specificity: guinea pig trachea before and after propranolol; conditions: for EC50: Cavia porcellus, 6 preparations
Description: respiratory (guinea pig trachea, in vitro)
cardiovascular (heart rate of the dog, in vivo) by the antagonistic effect of a β-blocking product.

COc1cc(C(O)CNC(C)CCn2cnc3ccccc32)ccc1O (centres unmarked) [Compound A, 1-[1-benzimidazolyl]-N-[2-(4-hydroxy-3-methoxy-phenyl)2-hydroxy-ethyl]3-amino butane basic sulphate, dihydrate]
Maximum response (decontraction) ([1]; 6 preparations): 390 mg
Emax ([1]; Cavia porcellus, 6 preparations, Salbutamol 1.00, read-out: Intrinsic activity): 109%
EC50 ([1]; Cavia porcellus, 6 preparations, read-out: CD50 (decontracting concentration 50, concentration giving 50% of maximum relaxation)): 71 nM
EC50 ([1]; Cavia porcellus, negative log of molar CD50, 6 preparations, read-out: pD2 (converted)): 70.8 nM
Activity on the tracheal muscle (comparison with Salbutamol) ([1]; in vitro, in words): very close to that of Salbutamol
% inhibition in time ([2]; 0.08 μg base/kg, 1 min): 1%
% inhibition in time ([2]; 0.08 μg base/kg, 5 min): 1%
% inhibition in time ([2]; 0.08 μg base/kg, 10 min): 0%
% inhibition in time ([2]; 0.08 μg base/kg, 15 min): 0%
% inhibition in time ([2]; 0.25 μg base/kg, 1 min): 9%
% inhibition in time ([2]; 0.25 μg base/kg, 5 min): 1%
% inhibition in time ([2]; 0.25 μg base/kg, 10 min): 0%
% inhibition in time ([2]; 0.25 μg base/kg, 15 min): 0%
% inhibition in time ([2]; 0.8 μg base/kg, 1 min): 36%
% inhibition in time ([2]; 0.8 μg base/kg, 5 min): 3%
% inhibition in time ([2]; 0.8 μg base/kg, 10 min): 2%
% inhibition in time ([2]; 0.8 μg base/kg, 15 min): 3%
% inhibition in time ([2]; 2.5 μg base/kg, 1 min): 66%
% inhibition in time ([2]; 2.5 μg base/kg, 5 min): 13%
% inhibition in time ([2]; 2.5 μg base/kg, 10 min): 8%
% inhibition in time ([2]; 2.5 μg base/kg, 15 min): 8%
% inhibition in time ([2]; 8 μg base/kg, 1 min): 73%
% inhibition in time ([2]; 8 μg base/kg, 5 min): 17%
% inhibition in time ([2]; 8 μg base/kg, 10 min): 12%
% inhibition in time ([2]; 8 μg base/kg, 15 min): 8%
% inhibition in time ([2]; 25 μg base/kg, 1 min): 92%
% inhibition in time ([2]; 25 μg base/kg, 5 min): 52%
% inhibition in time ([2]; 25 μg base/kg, 10 min): 38%
% inhibition in time ([2]; 25 μg base/kg, 15 min): 28%
% inhibition in time ([2]; 84 μg base/kg, 1 min): 92%
% inhibition in time ([2]; 84 μg base/kg, 5 min): 80%
% inhibition in time ([2]; 84 μg base/kg, 10 min): 70%
% inhibition in time ([2]; 84 μg base/kg, 15 min): 63%
% inhibition in time ([2]; 84 μg base/kg, 30 min): 51%
% inhibition in time ([2]; 84 μg base/kg, 45 min): 36%
% inhibition in time ([2]; 84 μg base/kg, 60 min): 21%
Bronchodilator activity (comparison with Salbutamol) ([2]; intravenous, in words): activity of the same order, although very slightly less for compound A at low doses; at the highest dose, the effect is intense and lasting, the compound A had an activity at least equal to that of Salbutamol
% inhibition in time ([3]; 0.25 mg base/kg, 1 min): 11%
% inhibition in time ([3]; 0.25 mg base/kg, 5 min): 27%
% inhibition in time ([3]; 0.25 mg base/kg, 15 min): 26%
% inhibition in time ([3]; 0.25 mg base/kg, 30 min): 26%
% inhibition in time ([3]; 0.25 mg base/kg, 45 min): 19%
% inhibition in time ([3]; 0.25 mg base/kg, 60 min): 13%
% inhibition in time ([3]; 0.25 mg base/kg, 90 min): 9%
% inhibition in time ([3]; 0.8 mg base/kg, 1 min): 16%
% inhibition in time ([3]; 0.8 mg base/kg, 5 min): 60%
% inhibition in time ([3]; 0.8 mg base/kg, 15 min): 61%
% inhibition in time ([3]; 0.8 mg base/kg, 30 min): 44%
% inhibition in time ([3]; 0.8 mg base/kg, 45 min): 29%
% inhibition in time ([3]; 0.8 mg base/kg, 60 min): 23%
% inhibition in time ([3]; 0.8 mg base/kg, 90 min): 21%
% inhibition in time ([3]; 2.5 mg base/kg, 1 min): 20%
% inhibition in time ([3]; 2.5 mg base/kg, 5 min): 73%
% inhibition in time ([3]; 2.5 mg base/kg, 15 min): 65%
% inhibition in time ([3]; 2.5 mg base/kg, 30 min): 53%
% inhibition in time ([3]; 2.5 mg base/kg, 45 min): 44%
% inhibition in time ([3]; 2.5 mg base/kg, 60 min): 39%
% inhibition in time ([3]; 2.5 mg base/kg, 90 min): 34%
% inhibition in time ([3]; 2.5 mg base/kg, 120 min): 30%
% inhibition in time ([3]; 8 mg base/kg, 1 min): 51%
% inhibition in time ([3]; 8 mg base/kg, 5 min): 82%
% inhibition in time ([3]; 8 mg base/kg, 15 min): 82%
% inhibition in time ([3]; 8 mg base/kg, 30 min): 71%
% inhibition in time ([3]; 8 mg base/kg, 45 min): 67%
% inhibition in time ([3]; 8 mg base/kg, 60 min): 65%
% inhibition in time ([3]; 8 mg base/kg, 90 min): 59%
% inhibition in time ([3]; 8 mg base/kg, 120 min (n = 9 compound A, n = 8 Salbutamol)): 55%
minimal effective dose ([3]; Cavia porcellus, read-out: Threshold active dose): 0.25 mg/kg
Bronchodilator activity (comparison, in words) ([3]; sulphate, dihydrate): more lasting at 8 mg/kg; also recorded: more active than Salbutamol
% inhibition in time ([4]; 0.025 mg base/kg, 5 min): 48%
% inhibition in time ([4]; 0.025 mg base/kg, 20 min): 60%
% inhibition in time ([4]; 0.025 mg base/kg, 35 min): 67%
% inhibition in time ([4]; 0.025 mg base/kg, 60 min): 63%
% inhibition in time ([4]; 0.025 mg base/kg, 90 min): 62%
% inhibition in time ([4]; 0.08 mg base/kg, 5 min): 70%
% inhibition in time ([4]; 0.08 mg base/kg, 20 min): 78%
% inhibition in time ([4]; 0.08 mg base/kg, 35 min): 76%
% inhibition in time ([4]; 0.08 mg base/kg, 60 min): 70%
% inhibition in time ([4]; 0.08 mg base/kg, 90 min): 60%
Bronchodilator activity (comparison, in words) ([4]; sulphate, dihydrate): acted more rapidly (inhibition already strong in 5 minutes); also recorded: activity was higher than or equal to that of Salbutamol, is characterised by its great speed of action
EC50 ([5]; contracting agent acetylcholine): 0.67 nM
EC50 ([5]; contracting agent serotonine): 2.4 nM
Activity on the uterus (comparison with Salbutamol) ([5]; in vitro, in words): of the same order of that of Salbutamol
Heart rate, increase ([6]; 1 × 10^-5 mol (maxi for Salbutamol)): +47 beats per min.
Heart rate, maximum ([6]; 1 × 10^-5 mol): 256 beats per min.
Heart rate, increase ([6]; 1 × 10^-6 mol (maxi for Compound A)): +49 beats per min.
Heart rate, maximum ([6]; 1 × 10^-6 mol): 258 beats per min.
Heart rate, increase ([6]; 1 × 10^-7 mol): +40 beats per min.
Heart rate, maximum ([6]; 1 × 10^-7 mol): 249 beats per min.
Emax ([6]; Cavia porcellus, same preparation, at the start of the test, read-out: Maximum as % of the maximum tachycardia obtained with isoprenaline): < 50%
CE50 and pD2 on heart rate (not calculable) ([6]; in vitro, in words): this low activity prevents calculation of a CE50 and a pD2
Tachycardiac activity in vitro (comparison with Salbutamol) ([6]; in words, listed as Compound a): only a partial effect, very much less than that of Salbutamol
Tachycardiac activity in vitro (comparison with Salbutamol) ([6]; in words): increases the rate but the maximum effect is very much less than that of Salbutamol
Tachycardiac and hypotensive effect (comparison with Salbutamol) ([7]; anesthetised dog, in words): a little less tachycardiac and hypotensive than Salbutamol
Heart rate, maximum cumulative effect ([7]; artificial respiration, 10 min after 0.08 mg/kg): +20 cpm
Average aortic pressure, maximum cumulative effect ([7]; artificial respiration, 75 min after 0.08 mg/kg): -26 mmHg
Heart rate, maximum cumulative effect ([7]; spontaneous respiration, 15 min after 0.08 mg/kg): +17 cpm
Average aortic pressure, maximum cumulative effect ([7]; spontaneous respiration, 20 min after 0.08 mg/kg): -15 mmHg
EC50 ([8]; read-out: CD50 before propranolol): 71 nM
EC50 ([8]; propranolol 1.7×10^-8 mol, read-out: CD50 after propranolol): 250 nM
Ratio of CD50 ([8]; after / before propranolol): 3.5
